From patent publication US20230027026A1, “FUSED PYRIMIDINE COMPOUNDS, COMPOSITIONS AND MEDICINAL APPLICATIONS THEREOF” (JUBILANT BIOSYS LIMITED, priority 2019, published 2023) come the findings set out here.

Structures can show the parent of a compound that is named as a salt.

For orientation: IC50 means the midpoint of a concentration-inhibition curve.

Format in all cases: cell-based
Assay [1] has as its system A431 cells. Description: Cellular proliferation (Alamar Blue) assay, A431. The following applies: Homo sapiens, A-431; A431 cells, 72 hr, Alamar Blue; read-out: A431 IC50. As for the experimental part: (§1) Example 3: Cellular Proliferation (Alamar Blue) Assays
(§2) • 1. EGFR(D770_N771insSVD) expressing Ba/F3 stable cell line • 2. EGFR (A767_dupASV) expressing Ba/F3 stable cell line • 3. A431 cells • 4. BTER2 (A775_G776insYVMA) expressing Ba/F3 stable cell line • 5. BTER2 (WT) expressing Ba/F3 stable cell line • 6. BT-474 cells
(§3) • 1. Seed cells at 5000 for A431 and 15,000 cells for Ba/F3 in 100 μL/well in complete media (for A431: DMEM with 10% FBS and for Ba/F3 cells: RPMI with 10% FBS) in 96-well tissue culture plate. Leave outer wells without cells for background measurements. Incubate at 37 degree Celsius in 5% CO2 humidified incubator for 16-18 hours. • 2. Add 0.025 ml of 5× concentration compound dilution or DMSO control. Final compound concentration range is 10-0.0005 μM prepared in 3-fold serial dilutions. Incubate for 72 hr at 37 degree Celsius in […] humidified incubator. • 3. Add 0.0125 mL Alamar Blue™ reagent to each well with multi-channel pipette and tap gently on each side of the plate to mix. Incubate for 3 hours at 37 degree Celsius in […] humidified incubator. • 4. Read plates on fluorescence reader (Tecan Spark Control, Device: Spark, Serial #: 1801006040) at 540 nm excitation, 590 nm emission wavelength. • 5. Data analysis was performed using XLfit 5.5.0.5.
In general terms: The colour change of resazurin is a common sign of viable cells or microbes.

Assay [2] concerns the target EGFR (A767_dupASV) expressing Ba/F3 stable cell line (Homo sapiens, UniProt P00533, DUP767-769, cells depend on it). Description: Cellular proliferation (Alamar Blue) assay, EGFR A767_dupASV Ba/F3. The following applies: EGFR A767_dupASV Ba/F3, 72 hr, read-out: A767 IC50. As for the experimental part:
as §1, §2, §3

Assay [3] has as its target EGFR(D770_N771insSVD) expressing Ba/F3 stable cell line (Homo sapiens, UniProt P00533, DUP768-770, cells depend on it). Briefly: Cellular proliferation (Alamar Blue) assay, EGFR D770_N771insSVD Ba/F3. The following applies: EGFR D770_N771insSVD Ba/F3, 72 hr, read-out: D770 IC50. As for the experimental part: as §1, §2, §3

EGFR(D770_N771insSVD) expressing Ba/F3 stable cell line, sequence (P00533 with tags, fused parts or gaps DUP768-770): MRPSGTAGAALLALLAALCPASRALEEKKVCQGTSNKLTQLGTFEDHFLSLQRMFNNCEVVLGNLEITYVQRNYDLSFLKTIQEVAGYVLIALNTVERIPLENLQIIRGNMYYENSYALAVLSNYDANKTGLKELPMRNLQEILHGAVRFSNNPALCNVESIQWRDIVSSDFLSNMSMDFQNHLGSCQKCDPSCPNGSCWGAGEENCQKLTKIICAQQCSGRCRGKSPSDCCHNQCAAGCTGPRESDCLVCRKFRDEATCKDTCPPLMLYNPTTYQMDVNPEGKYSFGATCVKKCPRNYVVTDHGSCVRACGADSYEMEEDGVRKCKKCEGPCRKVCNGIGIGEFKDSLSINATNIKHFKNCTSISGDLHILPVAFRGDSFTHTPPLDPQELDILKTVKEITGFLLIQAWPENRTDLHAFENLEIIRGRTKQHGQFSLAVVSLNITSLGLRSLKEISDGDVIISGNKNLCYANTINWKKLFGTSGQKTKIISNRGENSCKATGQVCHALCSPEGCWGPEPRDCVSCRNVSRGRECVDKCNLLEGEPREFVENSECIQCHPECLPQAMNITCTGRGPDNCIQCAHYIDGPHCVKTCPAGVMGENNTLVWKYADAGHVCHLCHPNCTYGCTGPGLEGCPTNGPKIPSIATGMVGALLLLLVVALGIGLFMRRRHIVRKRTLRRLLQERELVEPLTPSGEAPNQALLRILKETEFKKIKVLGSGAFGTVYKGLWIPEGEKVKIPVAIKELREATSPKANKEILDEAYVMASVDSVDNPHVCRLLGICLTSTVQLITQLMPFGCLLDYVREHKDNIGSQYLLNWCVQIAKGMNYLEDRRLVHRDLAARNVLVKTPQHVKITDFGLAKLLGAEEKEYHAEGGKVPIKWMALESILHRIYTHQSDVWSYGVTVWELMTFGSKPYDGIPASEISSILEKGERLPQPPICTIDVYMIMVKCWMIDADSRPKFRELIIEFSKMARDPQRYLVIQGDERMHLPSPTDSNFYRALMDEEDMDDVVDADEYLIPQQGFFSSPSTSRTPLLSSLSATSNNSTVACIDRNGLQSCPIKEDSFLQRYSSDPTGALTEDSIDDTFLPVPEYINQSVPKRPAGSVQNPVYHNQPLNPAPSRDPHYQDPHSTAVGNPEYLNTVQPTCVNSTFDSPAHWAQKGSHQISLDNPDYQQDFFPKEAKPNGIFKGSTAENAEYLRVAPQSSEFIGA
EGFR (A767_dupASV) expressing Ba/F3 stable cell line, sequence (P00533 with tags, fused parts or gaps DUP767-769): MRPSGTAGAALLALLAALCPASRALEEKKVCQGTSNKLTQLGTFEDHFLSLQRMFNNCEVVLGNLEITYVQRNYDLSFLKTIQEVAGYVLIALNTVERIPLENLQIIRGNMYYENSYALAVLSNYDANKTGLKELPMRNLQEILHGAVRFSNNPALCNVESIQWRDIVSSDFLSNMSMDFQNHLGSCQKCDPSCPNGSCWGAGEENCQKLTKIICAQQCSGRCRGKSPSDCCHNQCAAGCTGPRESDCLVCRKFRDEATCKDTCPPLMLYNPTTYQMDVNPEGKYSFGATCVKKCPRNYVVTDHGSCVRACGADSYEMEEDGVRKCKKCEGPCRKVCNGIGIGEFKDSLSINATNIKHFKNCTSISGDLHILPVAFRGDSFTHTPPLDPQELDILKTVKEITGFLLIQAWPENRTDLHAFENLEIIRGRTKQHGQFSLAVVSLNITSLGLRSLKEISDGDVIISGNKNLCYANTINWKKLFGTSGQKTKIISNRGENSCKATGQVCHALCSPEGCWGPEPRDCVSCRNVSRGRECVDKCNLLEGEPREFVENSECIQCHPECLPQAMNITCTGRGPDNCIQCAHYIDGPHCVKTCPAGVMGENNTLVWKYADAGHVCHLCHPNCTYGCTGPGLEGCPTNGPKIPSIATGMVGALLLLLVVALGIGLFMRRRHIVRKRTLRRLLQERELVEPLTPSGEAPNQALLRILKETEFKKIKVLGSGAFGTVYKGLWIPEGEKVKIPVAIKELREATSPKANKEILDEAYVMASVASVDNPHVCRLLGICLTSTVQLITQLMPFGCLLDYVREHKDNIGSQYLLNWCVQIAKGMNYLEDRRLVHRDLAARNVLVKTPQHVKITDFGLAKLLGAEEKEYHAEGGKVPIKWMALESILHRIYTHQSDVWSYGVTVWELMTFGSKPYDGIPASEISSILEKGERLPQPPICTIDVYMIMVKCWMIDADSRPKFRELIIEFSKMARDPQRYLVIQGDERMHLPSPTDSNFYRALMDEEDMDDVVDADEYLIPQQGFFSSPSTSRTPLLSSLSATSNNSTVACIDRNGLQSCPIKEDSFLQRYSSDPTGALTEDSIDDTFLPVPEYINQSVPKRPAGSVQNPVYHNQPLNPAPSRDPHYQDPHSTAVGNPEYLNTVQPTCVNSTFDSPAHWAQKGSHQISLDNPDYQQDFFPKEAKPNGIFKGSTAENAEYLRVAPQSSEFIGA

For the compound `C/C=C/C(=O)Nc1cccc(N2C(=O)N(Cc3ccccc3)Cc3cnc(Nc4cn(C)nc4F)nc32)c1` [Compound 87, (E)-N-(3-(3-benzyl-7-((3-fluoro-1-methyl-1H-pyrazol-4-yl)amino)-2-oxo-3,4-dihydropyrimido[4,5-d]pyrimidin-1(2H)-yl)phenyl)but-2-enamide], the IC50 in assay [1] was over 10000 nM. Also, the GI50 amounted to 2240 nM in assay [2] and 1980 nM in assay [3].
On the same counts, the results for `CN(C)C/C=C/C(=O)Nc1cccc(N2C(=O)N(Cc3ccccc3)Cc3cnc(Nc4cnn5cccnc45)nc32)c1` [Compound 90, (E)-N-(3-(3-benzyl-2-oxo-7-(pyrazolo[1,5-a]pyrimidin-3-ylamino)-3,4-dihydropyrimido[4,5-d]pyrimidin-1(2H)-yl)phenyl)-4-(dimethylamino)but-2-enamide] are at least 10000 nM, 1150 nM and 1850 nM.
On to `COCCn1cc(Nc2ncc3c(n2)N(c2cccc(NC(=O)/C=C/CN(C)C)c2)C(=O)N(Cc2ccccc2)C3)c(Cl)n1` [Compound 92, (E)-N-(3-(3-benzyl-7-((3-chloro-1-(2-methoxyethyl)-1H-pyrazol-4-yl)amino)-2-oxo-3,4-dihydropyrimido[4,5-d]pyrimidin-1(2H)-yl)phenyl)-4-(dimethylamino)but-2-enamide], for which the IC50 in assay [1] is at least 10000 nM. Further, the GI50 is 385 nM in assay [2] and 228 nM in assay [3].
On the same counts, the results for `CN(C)C/C=C/C(=O)Nc1cccc(N2C(=O)N(Cc3ccccc3)Cc3cnc(Nc4cn(CCF)nc4Cl)nc32)c1` [Compound 93, (E)-N-(3-(3-benzyl-7-((3-chloro-1-(2-fluoroethyl)-1H-pyrazol-4-yl)amino)-2-oxo-3,4-dihydropyrimido[4,5-d]pyrimidin-1(2H)-yl)phenyl)-4-(dimethylamino)but-2-enamide] are at least 10000 nM, 108 nM and 91 nM.
`CN(C)C/C=C/C(=O)Nc1cccc(N2C(=O)N(Cc3ccccc3)Cc3cnc(Nc4cn(C)nc4C(F)F)nc32)c1` [Compound 94, (E)-N-(3-(3-benzyl-7-((3-(difluoromethyl)-1-methyl-1H-pyrazol-4-yl)amino)-2-oxo-3,4-dihydropyrimido[4,5-d]pyrimidin-1(2H)-yl)phenyl)-4-(dimethylamino)but-2-enamide]: the IC50 in assay [1] was at least 10000 nM. The GI50 in assay [2] stood at 39 nM; in assay [3], 43 nM.
For the compound `CN(C)C/C=C/C(=O)Nc1cccc(N2C(=O)N(Cc3ccccc3)Cc3cnc(Nc4cn(C)nc4C(F)(F)F)nc32)c1` [Compound 95, (E)-N-(3-(3-benzyl-7-((1-methyl-3-(trifluoromethyl)-1H-pyrazol-4-yl)amino)-2-oxo-3,4-dihydropyrimido[4,5-d]pyrimidin-1(2H)-yl)phenyl)-4-(dimethylamino)but-2-enamide], the IC50 in assay [1] was determined as 6500 nM. Also, the results for the GI50 in assay [2] and in assay [3] were 106 nM and 97 nM, respectively.
On the same counts, the results for `CN(C)C/C=C/C(=O)Nc1cccc(N2C(=O)N(Cc3ccccc3)Cc3cnc(Nc4ccncc4)nc32)c1` [Compound 96, (E)-N-(3-(3-benzyl-2-oxo-7-(pyridin-4-ylamino)-3,4-dihydropyrimido[4,5-d]pyrimidin-1(2H)-yl)phenyl)-4-(dimethylamino)but-2-enamide] are at least 10000 nM, over 9350 nM and 4070 nM.
For `CN(C)C/C=C/C(=O)Nc1cccc(N2C(=O)N(Cc3ccccc3)Cc3cnc(Nc4cnn5c4OCCC5)nc32)c1` [Compound 97, (E)-N-(3-(3-benzyl-7-((6,7-dihydro-5H-pyrazolo[5,1-b][1,3]oxazin-3-yl)amino)-2-oxo-3,4-dihydropyrimido[4,5-d]pyrimidin-1(2H)-yl)phenyl)-4-(dimethylamino)but-2-enamide], the IC50 in assay [1] was at least 10000 nM. Besides, the values for the GI50 in assay [2] and in assay [3] were 2630 nM and 2540 nM, respectively.
Turning to `CN(C)C/C=C/C(=O)Nc1cccc(N2C(=O)N(Cc3ccccc3)Cc3cnc(Nc4cccc5c4CCN5C4CCN(C)CC4)nc32)c1` [Compound 98, (E)-N-(3-(3-benzyl-7-((1-(1-methylpiperidin-4-yl)indolin-4-yl)amino)-2-oxo-3,4-dihydropyrimido[4,5-d]pyrimidin-1(2H)-yl)phenyl)-4-(dimethylamino)but-2-enamide], in assay [1], the IC50 is at least 10000 nM. The GI50 in assay [2] was 322 nM; in assay [3], 138 nM.
Regarding `CN(C)C/C=C/C(=O)Nc1cccc(N2C(=O)N(Cc3ccccc3)Cc3cnc(Nc4ccc5c(ccn5C)c4)nc32)c1` [Compound 99, (E)-N-(3-(3-benzyl-7-((1-methyl-1H-indol-5-yl)amino)-2-oxo-3,4-dihydropyrimido[4,5-d]pyrimidin-1(2H)-yl)phenyl)-4-(dimethylamino)but-2-enamide], the IC50 in assay [1] is at least 10000 nM. The GI50 in assay [2] came to 115 nM; in assay [3], 145 nM.
As to `Cc1cn2cc(Nc3ncc4c(n3)N(c3cccc(NC(=O)/C=C/CN(C)C)c3)C(=O)N(Cc3ccccc3)C4)ccc2n1` [Compound 100, (E)-N-(3-(3-benzyl-7-((2-methylimidazo[1,2-a]pyridin-6-yl)amino)-2-oxo-3,4-dihydropyrimido[4,5-d]pyrimidin-1(2H)-yl)phenyl)-4-(dimethylamino)but-2-enamide], the IC50 in assay [1] was at least 10000 nM. For the same compound, the GI50 in assay [2] turned out to be 2970 nM; in assay [3], 4810 nM.
On the same counts, the results for `CN(C)C/C=C/C(=O)Nc1cccc(N2C(=O)N(Cc3ccccc3)Cc3cnc(Nc4cn(CC(F)F)nc4Cl)nc32)c1` [Compound 101, (E)-N-(3-(3-benzyl-7-((3-chloro-1-(2,2-difluoroethyl)-1H-pyrazol-4-yl)amino)-2-oxo-3,4-dihydropyrimido[4,5-d]pyrimidin-1(2H)-yl)phenyl)-4-(dimethylamino)but-2-enamide] are at least 10000 nM, 100 nM and 176 nM.
On the same counts, the results for `CN(C)C/C=C/C(=O)Nc1cccc(N2C(=O)N(Cc3ccccc3)Cc3cnc(Nc4ccc5c(c4)ncn5C)nc32)c1` [Compound 102, (E)-N-(3-(3-benzyl-7-((1-methyl-1H-benzo[d]imidazol-5-yl)amino)-2-oxo-3,4-dihydropyrimido[4,5-d]pyrimidin-1(2H)-yl)phenyl)-4-(dimethylamino)but-2-enamide] are at least 10000 nM, 694 nM and 929 nM.
Regarding `COc1ncccc1Nc1ncc2c(n1)N(c1cccc(NC(=O)/C=C/CN(C)C)c1)C(=O)N(Cc1ccccc1)C2` [Compound 103, (E)-N-(3-(3-benzyl-7-((2-methoxypyridin-3-yl)amino)-2-oxo-3,4-dihydropyrimido[4,5-d]pyrimidin-1(2H)-yl)phenyl)-4-(dimethylamino)but-2-enamide trifluoroacetate salt], the IC50 in assay [1] was at least 10000 nM. The GI50 in assay [2] stood at 269 nM; in assay [3], 224 nM.
As to `CN(C)C/C=C/C(=O)N(C)c1cccc(N2C(=O)N(c3ccccc3)Cc3cnc(Nc4cn(C)nc4Cl)nc32)c1` [Compound 104, (E)-N-(3-(7-((3-chloro-1-methyl-1H-pyrazol-4-yl)amino)-2-oxo-3-phenyl-3,4-dihydropyrimido[4,5-d]pyrimidin-1(2H)-yl)phenyl)-4-(dimethylamino)-N-methylbut-2-enamide], the IC50 in assay [1] was at least 10000 nM. Also, the results for the GI50 in assay [2] and in assay [3] were 255 nM and 885 nM, respectively.
For `C=CC(=O)Nc1cccc(N2C(=O)N(c3ccccc3)Cc3cnc(Nc4cn(C5CCN(C)CC5)nc4Cl)nc32)c1` [Compound 105, N-(3-(7-((3-chloro-1-(1-methylpiperidin-4-yl)-1H-pyrazol-4-yl)amino)-2-oxo-3-phenyl-3,4-dihydropyrimido[4,5-d]pyrimidin-1(2H)-yl)phenyl)acrylamide], the IC50 in assay [1] was 3600 nM. The GI50 in assay [2] worked out at 12 nM; in assay [3] it was 14 nM.
Consider `CN1CCN(C/C=C/C(=O)Nc2cccc(N3C(=O)N(c4ccccc4)Cc4cnc(Nc5cn(C)nc5Cl)nc43)c2)CC1` [Compound 126, (E)-N-(3-(7-((3-chloro-1-methyl-1H-pyrazol-4-yl)amino)-2-oxo-3-phenyl-3,4-dihydropyrimido[4,5-d]pyrimidin-1(2H)-yl)phenyl)-4-(4-methylpiperazin-1-yl)but-2-enamide], for which, in assay [1], the IC50 is at least 10000 nM. Besides, the values for the GI50 in assay [2] and in assay [3] were 1090 nM and 2290 nM, respectively.
In the case of `C=C(OC)C(=O)Nc1cccc(N2C(=O)N(c3ccccc3)Cc3cnc(Nc4cn(C)nc4Cl)nc32)c1` [Compound 127, N-(3-(7-((3-chloro-1-methyl-1H-pyrazol-4-yl)amino)-2-oxo-3-phenyl-3,4-dihydropyrimido[4,5-d]pyrimidin-1(2H)-yl)phenyl)-2-methoxyacrylamide], the IC50 in assay [1] was 8170 nM. Moreover, the GI50 in assay [2] and in assay [3] was at least 10000 nM each time.
